Several values for one entry are separate records, joined by “and”; a condition that tells them apart may be missing. Identical values can stand only once.
Assays:
[1] = target: T1, TLR7 extracellular domain (Macaca mulatta, UniProt B3Y653, N167Q/N389Q/N488Q/N799Q); experiment: ITC titration to TLR7 recombinant protein; format: binding, Monkey (Macaca mulatta); settings: pH 4.7; read-out: Dissociation constant KD
T1 construct: Monkey (Macaca mulatta) TLR7 extracellular domain expression construct; protein A tag (C, cleaved yes); made in house; host or cells: Drosophila S2 cells
T1 sequence (B3Y653 with tags, fused parts or gaps N167Q/N389Q): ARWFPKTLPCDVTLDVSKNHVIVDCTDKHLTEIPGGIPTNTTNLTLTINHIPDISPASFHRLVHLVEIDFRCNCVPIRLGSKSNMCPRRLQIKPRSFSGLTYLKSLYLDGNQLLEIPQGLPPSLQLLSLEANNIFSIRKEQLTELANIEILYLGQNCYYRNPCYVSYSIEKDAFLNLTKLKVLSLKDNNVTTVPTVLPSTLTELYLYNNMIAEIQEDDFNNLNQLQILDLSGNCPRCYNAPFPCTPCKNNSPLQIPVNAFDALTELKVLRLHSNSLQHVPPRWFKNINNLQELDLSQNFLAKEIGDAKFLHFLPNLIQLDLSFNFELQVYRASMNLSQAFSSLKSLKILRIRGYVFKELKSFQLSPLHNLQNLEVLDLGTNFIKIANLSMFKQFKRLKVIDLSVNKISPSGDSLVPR
T1 sequence (B3Y653 with tags, fused parts or gaps N488Q/N799Q): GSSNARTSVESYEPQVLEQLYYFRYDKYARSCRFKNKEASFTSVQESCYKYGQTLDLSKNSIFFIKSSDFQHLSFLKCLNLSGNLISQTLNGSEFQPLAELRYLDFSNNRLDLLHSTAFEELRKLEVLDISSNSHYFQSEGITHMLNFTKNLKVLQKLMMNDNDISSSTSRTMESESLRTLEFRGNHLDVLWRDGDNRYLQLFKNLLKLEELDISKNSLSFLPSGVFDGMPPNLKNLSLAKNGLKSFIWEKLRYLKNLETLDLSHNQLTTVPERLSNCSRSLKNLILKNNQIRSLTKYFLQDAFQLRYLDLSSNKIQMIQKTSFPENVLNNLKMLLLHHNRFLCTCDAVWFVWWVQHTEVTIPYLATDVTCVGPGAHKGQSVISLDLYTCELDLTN
Experimental: (§1) The recombinant TLR7 proteins expressed in Drosophila S2 cells (Thermo Fisher Scientific) using Monkey (Macaca mulatta) TLR7 extracellular domain expression construct with N167Q, N399Q, N488Q and N799Q mutations and cleavable Z-loop and C-terminal protein A tag were prepared and were stored in a buffer containing 10 mM Tris-HCl pH 7.5 and 150 mM NaCl at concentrations of 10–15 mg ml^−1. Briefly, the purification steps included IgG affinity purification, the Z-loop and the protein A tag cleavage, and gel-filtration chromatography. Glycan-trimmed TLR7 proteins, expressed in the presence of 1.5 mg l^−1 kifunensine (Glycosyn) and treated by Endo Hf (New England Biolabs) were used for crystallization. Glycan-untrimmed proteins were used in ITC analysis, crosslinking assay, negative-staining EM and cryo-EM (200 kV microscopes) analyses. Glycan-trimmed TLR7 proteins with partially-uncleaved protein A tag were used for cryo-EM analysis using Tatan Krios (Supplementary Fig. 11).
ITC experiments (Fig. 2a) were conducted at 298 K in a final buffer condition of ~30 mM citrate-NaOH pH 4.7 or pH 5.7 (Hampton Research), 150 mM NaCl by using a MicroCal iTC200 (Malvern Panalytical). […]

TLR1/2 = target: T2, TLR1/2 (Homo sapiens, UniProt O60603+Q15399); experiment: TNF-α production by human PBMC stimulated by TLR1/2 ligand Pam3CSK4 (ELISA); format: cell-based; settings: for TLR2-dependent TNF-α production: 2.5 μM; for Mean TNF-α / TNF-α: activator PAM3CSK4, antagonist 2.5 μM; for Mean TNF-α: n = 3; for TNF-α: single replicate
T2 construct: Human Peripheral Blood Mononuclear cells (hPBMCs) were collected from healthy adult donors; endogenous in cells; host or cells: primary human PBMCs
Experimental: Human Peripheral Blood Mononuclear cells (hPBMCs) were collected from healthy adult donors. hPBMCs were cultured in round-bottom 96-well plates (BD Falcon, Durham, NC, USA) with a density of 5 × 10^5 cells/well. Plated cells were pretreated with DMSO or 2.5 μM inhibitors for 3 h and then stimulated by indicated ligands, such as R848 or TLR1/2 specific ligand Pam3CSK4 (Invivogen, HongKong, China), for 20 h in […] of RPMI 1640 medium (Gibco, Paisley, UK) supplemented with 10% FBS, Penicillin-Streptomycin-Glutamine (Gibco, Paisley, UK), 50 μM 2-ME medium at 37 °C in the presence of 5% CO2. Supernatants were collected to measure secreted cytokines by ELISA. Concentration of human IFN-α and TNF-α in the supernatants was measured with Verikine Human IFN-α Multi-Subtype Serum ELISA Kit (PBL Assay Science, Piscataway, NJ, USA) and Human TNF-α Uncoated ELISA (ThermoFisher Scientific, Carlsbad, CA, USA), respectively. This study was approved by the Research Ethics Committee of IMSUT (accession number: 30-100-B20190419).

TLR7 = experiment: Glutaraldehyde crosslinking assay of ligand-induced TLR7 dimerization; format: biochemical, Monkey (Macaca mulatta); settings: for ligand-induced TLR7 dimerization: neutral or acidic pH
Experimental: as §1
For glutaraldehyde crosslinking assay (Fig. 2b), proteins were buffer exchanged into a buffer containing 10 mM HEPES-NaOH, pH 8.0, 150 mM NaCl and were concentrated to ~13 mg/ml using Amicon Ultra devices (Merck). Protein concentrations were adjusted to 25 µM using buffers containing 10 mM HEPES-NaOH, pH 7.0, 150 mM NaCl (for neutral condition) or 50 mM citrate-NaOH pH 5.0, 150 mM NaCl (for acidic condition). Cpd-3, Cpd-6 or Cpd-7 were added to final concentrations of 100 or 1000 µM. The reactions were started by adding glutaraldehyde (Wako) to a final concentration of 5 mM (for neutral condition) or 20 mM (for acidic condition), incubated at ambient temperature for 25 min and quenched by adding Tris-HCl pH 7.5 to a final concentration of 100 mM. Crosslinked samples were analyzed by non-reducing SDS-PAGE. Quantitative analysis of the SDS-PAGE gel image was performed with Image-J.

[2] = pH 5.0, ligand + (100 or 1000 µM used)
[3] = pH 5.0, ligand ++ (100 or 1000 µM used)
[4] = pH 7.0, ligand + (100 or 1000 µM used)
[5] = pH 7.0, ligand ++ (100 or 1000 µM used)

T2 sequence (Q15399 25-786): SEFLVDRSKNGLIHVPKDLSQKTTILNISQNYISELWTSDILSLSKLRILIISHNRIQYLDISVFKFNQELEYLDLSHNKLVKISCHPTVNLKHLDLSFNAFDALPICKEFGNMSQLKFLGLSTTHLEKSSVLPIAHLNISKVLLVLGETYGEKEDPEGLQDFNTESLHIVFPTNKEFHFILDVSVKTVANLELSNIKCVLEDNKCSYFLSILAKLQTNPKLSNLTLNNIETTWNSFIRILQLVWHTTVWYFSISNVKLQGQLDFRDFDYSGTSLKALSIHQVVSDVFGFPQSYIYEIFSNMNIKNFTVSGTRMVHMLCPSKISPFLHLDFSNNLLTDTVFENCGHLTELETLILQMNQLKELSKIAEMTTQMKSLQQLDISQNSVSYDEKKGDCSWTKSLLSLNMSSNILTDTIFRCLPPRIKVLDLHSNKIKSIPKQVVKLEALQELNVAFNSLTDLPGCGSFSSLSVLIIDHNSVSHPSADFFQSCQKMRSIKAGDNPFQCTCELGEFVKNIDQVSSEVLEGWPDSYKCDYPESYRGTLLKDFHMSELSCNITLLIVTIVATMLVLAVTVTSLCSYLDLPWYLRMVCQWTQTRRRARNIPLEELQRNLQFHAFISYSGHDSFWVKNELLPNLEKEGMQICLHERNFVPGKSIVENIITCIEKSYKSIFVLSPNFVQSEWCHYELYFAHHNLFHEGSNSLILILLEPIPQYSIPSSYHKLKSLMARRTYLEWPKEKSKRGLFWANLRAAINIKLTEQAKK
T2 sequence (O60603 19-784 limits assumed): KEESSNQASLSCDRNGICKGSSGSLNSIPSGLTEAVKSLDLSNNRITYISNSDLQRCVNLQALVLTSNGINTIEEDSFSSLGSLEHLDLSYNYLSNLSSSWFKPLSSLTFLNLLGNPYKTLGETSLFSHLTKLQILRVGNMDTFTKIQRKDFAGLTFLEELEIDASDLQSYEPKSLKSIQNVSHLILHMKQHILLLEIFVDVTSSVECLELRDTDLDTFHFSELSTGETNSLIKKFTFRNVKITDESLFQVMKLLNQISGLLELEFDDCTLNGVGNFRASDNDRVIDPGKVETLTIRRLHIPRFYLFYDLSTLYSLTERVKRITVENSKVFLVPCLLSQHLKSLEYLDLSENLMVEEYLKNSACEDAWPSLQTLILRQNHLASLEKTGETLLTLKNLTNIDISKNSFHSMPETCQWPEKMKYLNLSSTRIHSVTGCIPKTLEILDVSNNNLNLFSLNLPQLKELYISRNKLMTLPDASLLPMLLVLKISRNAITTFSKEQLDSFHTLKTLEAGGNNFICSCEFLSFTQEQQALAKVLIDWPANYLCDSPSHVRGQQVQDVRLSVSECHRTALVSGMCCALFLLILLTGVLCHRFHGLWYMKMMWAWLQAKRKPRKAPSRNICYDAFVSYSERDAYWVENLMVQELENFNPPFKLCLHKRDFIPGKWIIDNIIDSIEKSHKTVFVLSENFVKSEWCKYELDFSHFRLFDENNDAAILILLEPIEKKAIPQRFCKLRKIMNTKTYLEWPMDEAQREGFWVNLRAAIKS

## CCOc1nc(N)c2nc(-c3cncc(F)c3)n(Cc3ccc(CN4C[C@@H]5C[C@H]4CN5C)cc3)c2n1 [Cpd-6]
[1]
  Kd: 10 µM
TLR1/2
  TLR2-dependent TNF-α production: neither Cpd-6 nor Cpd-7 blocked
  Mean TNF-α: 2207.35 pg/mL
  TNF-α: 2553.64 pg/mL and 2237.72 pg/mL and 1830.68 pg/mL
TLR7
  ligand-induced TLR7 dimerization: increased only in acidic conditions
TLR7; [2]
  Band intensity Dimer: 8170.97
  Band intensity Monomer: 16240
TLR7; [3]
  Band intensity Dimer: 8032.26
  Band intensity Monomer: 12976
TLR7; [4]
  Band intensity Dimer: 10536.9
  Band intensity Monomer: 14418
TLR7; [5]
  Band intensity Dimer: 14285.1
  Band intensity Monomer: 11832.4

## CCOc1nc(C)c2nc(-c3cncc(F)c3)n(Cc3ccc(CN4C[C@@H]5C[C@H]4CN5C)cc3)c2n1 [Cpd-7]
[1]
  Kd: 7.4 µM
TLR1/2
  TLR2-dependent TNF-α production: neither Cpd-6 nor Cpd-7 blocked
  Mean TNF-α: 2407.5 pg/mL
  TNF-α: 2596.39 pg/mL and 2051.11 pg/mL and 2574.99 pg/mL
TLR7
  ligand-induced TLR7 dimerization: increased only in acidic conditions
TLR7; [2]
  Band intensity Dimer: 8301.55
  Band intensity Monomer: 16518.6
TLR7; [3]
  Band intensity Dimer: 8600.5
  Band intensity Monomer: 15510.2
TLR7; [4]
  Band intensity Dimer: 9334.79
  Band intensity Monomer: 16326.2
TLR7; [5]
  Band intensity Dimer: 12602.5
  Band intensity Monomer: 14640.4

— publication PMC7562955 (Nature Communications, 2020)
